Laboratory results taken from patent publication US20190307771A1, “METHODS AND COMPOSITIONS FOR THE TREATMENT OF CANCER AND METABOLIC DISEASES” (THE REGENTS OF THE UNIVERSITY OF CALIFORNIA, priority 2016, published 2019).
“Also recorded” adds a separate entry of the source. Like-named read-outs stand apart in the source and are kept apart here.

Columns and labels:
RARB and NUR77 genes = experiment: ChIP-qPCR: HDAC recruitment and H3K9 acetylation at RARB and NUR77 genes in HCT116 cells; format: cell-based; conditions: RA 10 μM, butyrate 5 mM, SAHA 5 μM
Description: Cell lysates were used for ChIP with antibodies specific for HDAC1, HDAC4, SIRT1, or acetylated H3K9, followed by qPCR using primers specific for the RARB and NUR77 genes. DMSO treated cells and IP using IgG were included as negative controls. […]inding was expressed relative to the IgG negative controls.
(§1) Chromatin immunoprecipitation (ChIP)-qPCR ChIP-qPCR was performed as described previously^21. Briefly, chromatin lysate was precleared before incubation with an anti-H3K9AC antibody (Millipore. Billerica, Mass.), anti-HDAC1 and anti-HDAC4 (Cell signaling technology, Beverly, Mass.) or anti-SIRT1 antibody (Santa Cruz Biotechnology, Santa Cruz, Calif.). IgG (Santa Cruz Biotechnology, Santa Cruz, Calif.) and RNA Polymerase II antibody (Millipore, Billerica, Mass.) were used as negative and positive controls, respectively. Samples were incubated with Dynase beads at 4° C. overnight followed by de-crosslinking and purification. DNA fragments generated served as templates for qPCR using Power SYBR1 Green PCR Master Mix.

NUR77 and RARβ [1] = experiment: Immunoprecipitation/Western blot: protein acetylation of NUR77 and RARβ; format: cell-based; conditions: HCT116 cells; IP with anti-NUR77 or anti-RARβ, anti-acetyl lysine blot
Description: FIG. 12A depicts the expression levels of proteins that were extracted from HCT116 cells and immunoprecipitated by anti-NUR77 and RARβ antibodies or IgG, followed by Western blot using an anti-acetyl lysine antibody. […] The mRNA levels of NUR77 target genes BRE as well as CCND2 and RARβ target genes RARβ and CYP26A1 in HCT116 cells are shown in FIG. 12C.
(§2) NUR77 and RARβ acetylation status was also studied because protein acetylation alters nuclear receptor activity^37. […] To study the effect of RA/butyrate in modulating NUR77 and RARβ transcriptional activity, ChIP-qPCR and RT-PCR were performed to determine receptor binding to transcriptional regulatory regions and mRNA levels of downstream targets, respectively.
(§3) Western blot and immunoprecipitation were performed as described previously^22. Specific antibodies used included anti-NUR77, RARβ, SIRT1, β-actin, and IgG (Santa Cruz Biotechnology, Santa Cruz, Calif.), phospho-JNK1/2, total JNK1/2, cleaved caspase3, HDAC1 and HDAC4 (Cell Signaling Technology, Beverly, Mass.), and CCNA2 (Novus Biologicals, Littleton, Colo.). To detect protein acetylation of NUR77 and RARβ, cell lysates (500 μg) were incubated with anti-NUR77, RARβ, or IgG antibody (1 μg), precipitated by adding Dynabeads (30 μl, Life Technologies, Carlsbad, Calif.), and probed with anti-Acetyl-lysine antibody (Cell Signaling Technology, Beverly, Mass.). To study the interaction between RARβ and NUR77, whole-cell lysates were precipitated with anti-RARβ or NUR77 antibody followed by Western blot using anti-NUR77 or RARβ antibody.

[2] = tested on: HDAC1, HDAC4, SIRT1, cyclin A2 (CCNA2); experiment: Western blot of protein deacetylases and cyclin A2 in HCT116 cells; format: cell-based; conditions: 24 hours, RA 10 μM, butyrate 5 mM, SAHA 5 μM
[3] = tested on: Gpr41, Gpr43, Gpr109a, Pgc1α, Pepck, Fas; experiment: Ileal and hepatic mRNA levels in mice after oral gavage; format: in vivo, C57BL/6 mice; conditions: RA 15 mg/kg and/or butyrate 500 mg/kg, oral gavage every other day for one week
NUR77 = experiment: ChIP-qPCR and RT-PCR: NUR77 binding to BRE and CCND2 and their mRNA; format: cell-based; conditions: HCT116 cells
Description: as §2, §1

RARβ = experiment: ChIP-qPCR: RARβ binding to DR5 motif upstream of RARβ and CYP26A1 genes; format: cell-based; conditions: HCT116 cells
Description: as §2, §1

[4] = tested on: Class I (HDAC1, 2, 3, and 8) and Class IIa (HDAC4, 5, 7, and 9); conditions: cited from earlier work
NUR77 and RARβ [5] = experiment: Induction and localization of NUR77 and RARβ in HCT116 cells; format: cell-based; conditions: 48 hours, RA 10 μM, butyrate 5 mM, SAHA 5 μM, EGF 32 nM
Description: Proteins were immunoprecipitated by anti-NUR77 or anti-RARβ antibodies, or IgG, followed by Western blot using anti-RARβ or anti-NUR77 antibodies.
To study the effect of miR-22 in induction of cytosolic NUR77 by RA/butyrate, adenoviral-delivery of miR-22 inhibitors tagged with green fluorescence (adeno-miR-22 inhibitor-GFP, Applied Biological Materials Inc, Richond, BC) were used to infect HCT116 cells. At 48 hours post adenoviral infection, cells were treated with RA (10 μM) plus butyrate (5 mM) or DMSO for 24 hours. […] Cells were mounted in ProLong® Gold Antifade Reagent with DAPI (4′,6-diamidino-2-phenylindole, Life Technologies, Carlsbad, Calif.) and imaged under Keyence BZ-9000 microscope.

[6] = tested on: retinoic acid receptor beta (RARβ); experiment: RARB expression in HCT116 cells (qRT-PCR); format: cell-based; conditions: 24 hours, RA 10 μM, butyrate 5 mM, SAHA 5 μM
Description: (§4) Total RNA was extracted with TRIzol Reagent (Invitrogen, Carlsbad, Calif.), and cDNA was generated using High Capacity RNA-to-cDNA Kit (Applied Biosystems, Carlsbad, Calif.). qRT-PCR was performed on ABI 7900HT Fast Real time PCR system using Power SYBR® Green PCR Master Mix (Applied Biosystems, Carlsbad, Calif.).

[7] = tested on: HCT116 colon cancer cells; experiment: MTT cell viability assay in HCT116 cells; format: cell-based; conditions: RA 10 μM, butyrate 5 mM, SAHA 5 μM; for Cell viability: 48 hours, propionate 10 mM, valerate 10 mM, vs. DMSO
Description: Cell viability was monitored by MTT assay.
HCT116 cells (American Type Culture Collection) were maintained in McCoy's 5a medium from Gibco (Life Technologies, Carlsbad, Calif.) with 10% FBS. Cells were plated (1×10^6 cells per 60-mm dish, 2×10^5 cells per 6-well plates, and 1×10^5 cells per 24-well plates) overnight prior to treatment or transfection.
Cells were stained with 3-(4,5-dimethylthiazol-2-O-2,5-diphenyltetrazolium bromide (MTT, Sigma-Aldrich, St. Louis, Mo.) and measured at 570 nm with Microplate Reader (Biotek, Winooski, Vt.).

miR-22 [8] = experiment: miR-22 expression in HCT116 cells (qRT-PCR); format: cell-based; conditions: 24 hours, RA 10 μM, butyrate 5 mM, propionate 10 mM, valerate 10 mM, SAHA 5 μM
Description: To study the effect of RA and HDAC inhibitors on miR-22 expression, HCT116 cells were treated with RA, butyrate, propionate, valerate, and SAHA. The SCFA concentrations used were within physiologic ranges^35.
as §4

[9] = tested on: CYCLIN A2, HDAC1, HDAC4, SIRT1; experiment: Protein levels in Huh7 liver cancer cells; conditions: liver Huh7 cells
[10] = tested on: HDAC1, HDAC4, SIRT1, cyclin A2 (CCNA2); experiment: Western blot of protein deacetylases and cyclin A2 in HCT116 cells; format: cell-based; conditions: colon HCT116 cells; CDCA treatment or miR-22 mimic transfection
Description: HCT116 cells were transfected with either an miR-22 mimic or a scramble control, and 48 hours later the protein levels of HDAC4, SIRT1, and cyclin A2 were measured (FIG. 3B). The expression of all three proteins was reduced by treatment with the miR-22 mimic.
as §3

miR-22 [11] = conditions: published data, cited from earlier work

CCCC(=O)[O-].[Na+] [butyrate, sodium butyrate]
H3K9 acetylation of NUR77 and RARβ genes (ChIP-qPCR) (RARB and NUR77 genes; 24 hours): increased H3K9 acetylation | Recruitment of HDAC1, HDAC4, and SIRT1 to the regulatory region of NUR77 and RARβ (ChIP-qPCR) (RARB and NUR77 genes; 24 hours): decreased recruitment of HDAC1, HDAC4, and SIRT1 | Histone acetylation (H3K9Ac) in the gene encoding RARβ (ChIP-qPCR) (RARB and NUR77 genes): increased histone acetylation | Recruitment of HDAC4 and SIRT1 to the RARB gene (ChIP-qPCR) (RARB and NUR77 genes): reduced the recruitment of HDAC4 and SIRT1; also recorded: decreased the recruitment of HDAC4 and SIRT1 | Acetylated NUR77 and RARβ (NUR77 and RARβ [1]): only increased acetylated NUR77 | Protein levels of HDAC1, HDAC4, SIRT1, and cyclin A2 (CCNA2) [2]: reduced HDAC1, HDAC4, SIRT1, and CCNA2 protein levels | Expression of Gpr41 and Gpr43 [3]: could induce the expression | Expression of Gpr109a [3]: induced Gpr109a | NUR77 binding to BRE and CCND2 promoter regions and their mRNA levels (NUR77 transcriptional activity) (NUR77): reduced NUR77 binding | Increase of RARβ binding to the DR5 motif upstream of RARβ and CYP26A1 genes (RARβ): 4 folds | Inhibition of HDAC classes [4]: inhibit Class I (HDAC1, 2, 3, and 8) and Class IIa (HDAC4, 5, 7, and 9) | Induction and localization of NUR77 and RARβ (immunostaining) (NUR77 and RARβ [5]): markedly induced NUR77 and RARβ | RARB (RARβ) expression / transcription [6]: upregulated | Cell viability (MTT assay) ([7]; 24 hours): reduced cell viability | Cell viability [7]: Markedly reduced cell viability | miR-22 expression level (miR-22 [8]): upregulated; also recorded: induce miR-22; also recorded: induced; also recorded: increased miR-22 level

CC(/C=C/C(=O)NO)=C\[C@@H](C)C(=O)c1ccc(N(C)C)cc1 [trichostatin A]
Inhibition of HDAC classes [4]: inhibit Class I (HDAC1, 2, 3, and 8) and Class IIa (HDAC4, 5, 7, and 9)

CCCCC(=O)O [valerate]
Cell viability [7]: Markedly reduced cell viability | miR-22 expression level (miR-22 [8]): induced; also recorded: increased miR-22 level

C[C@H](CCC(=O)O)[C@H]1CC[C@H]2[C@@H]3[C@H](O)C[C@@H]4C[C@H](O)CC[C@]4(C)[C@H]3CC[C@]12C [CDCA, chenodeoxycholic acid]
CYCLIN A2 levels [9]: reduced CYCLIN A2 levels; also recorded: repression of cyclin A2 | CYCLIN A2 levels [10]: reduced CYCLIN A2 levels; also recorded: repression of cyclin A2 | miR-22 induction (miR-22 [11]): induces miR-22 | miR-22 induction (miR-22 [11]; listed as chenodeoxycholic acid): induce miR-22
